# According to EP0745595A1, “3-(3-Aryloxyphenyl)-1-(substituted methyl)-s-triazine-2,4,6-oxo or thiotrione herbicidal agents” (American Cyanamid Company, priority 1995, dated 1996):
# Assays:
# Assay type in all cases: in vivo
# [1] = system: GALIUM APARINE; test: Preemergence herbicidal evaluation, GALAP (Galium); conditions: for GALAP herbicidal rating: rated four to five weeks after treatment
# In short: (§1)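 Seeds sown in potting soil cups, then sprayed preemergence with aqueous acetone compound solution at about 0.125 to 0.50 kg per hectare. Greenhouse-grown, rated 4–5 weeks after treatment on a 0–9 visual scale against control.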
# [2] = system: GLYCINE MAX(L) MERR. CV. WILLIAMS; test: Postemergence herbicidal evaluation, GLXMAW (Soybean, Williams); set-up: key to GLXMAW rating / Herbicidal effect rating, GLXMAW / GLXMAW: 0-9 visual rating scale vs untreated control
# In short: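 Soybean seedlings (Williams) were raised in jiffy flats for roughly two weeks, then sprayed postemergence through a nozzle at 40 psi with test compound dispersed in 50/50 acetone/water containing 0.5% TWEEN®20. Treated plants were kept on greenhouse benches under normal care and visually rated on a 0-9 scale four to five weeks later.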
# [3] = system: CASSIA OBTUSIFOLIA, L.; test: Preemergence herbicidal evaluation, CASOB (Sicklepod); conditions: for CASOB herbicidal rating: rated four to five weeks after treatment
# In short: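 Seeds of various monocot and dicot plants, including sicklepod, were each mixed with potting soil and sown on roughly one inch of soil in separate pint cups for preemergence testing. Treated cups were kept on greenhouse benches, watered and maintained conventionally. Four to five weeks after treatment, each cup was visually rated on a 0-9 scale against a control.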
# [4] = system: SAGITTARIA PYGMAEA, L.; test: Preemergence weed control under flooded paddy conditions, SAGPY (Arrowhead (Pygmaea)); conditions: for Herbicidal effect rating, SAGPY: preemergence, 3-4 weeks after treatment; for SAGPY: pre-weed
# In short: (§2)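 Flooded paddy preemergence test: seeds/propagating organs in top 0.5 cm silt loam, water held 1.5-3 cm above soil. Dosing by pipette into flood water, aqueous/acetone 50/50 v/v, ~0.5, 0.25, 0.125, 0.063 kg/ha a.i. Greenhouse; read at 3-4 wk, 0-9 visual scale.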
# [5] = system: CYPERUS IRIA; test: Preemergence weed control under flooded paddy conditions, CYPIR (Rice Flatsedge); conditions: for Herbicidal effect rating, CYPIR: preemergence, 3-4 weeks after treatment; for CYPIR: pre-weed
# In short: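 Seeds or propagating organs of rice flatsedge were planted in the top 0.5 cm of silt loam soil in 32 oz. plastic containers, 10.5 cm across and without drainage holes. Water was kept 1.5 to 3 cm above the soil throughout. Treated containers were kept on greenhouse benches, and herbicidal effect was visually rated on a 0-9 scale against a control.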
# [6] = system: ECHINOCHLOA ORYZOIDES (ARD.)FRITSCH; test: Preemergence weed control under flooded paddy conditions, ECHORC (Watergrass (Calif.)); conditions: for Herbicidal effect rating, ECHORC: preemergence, 3-4 weeks after treatment; for ECHORC: pre-weed
# In short: as §2
# [7] = system: […], PRESL.; test: Preemergence weed control under flooded paddy conditions, MOOVA (Monochoria); conditions: for Herbicidal effect rating, MOOVA: preemergence, 3-4 weeks after treatment; for MOOVA: pre-weed
# In short: as §2
# [8] = system: ZEA MAYS L.; test: Postemergence herbicidal evaluation, ZEAMX (Corn, Field)
# In short: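 Corn seedlings were raised in jiffy flats for roughly two weeks, then sprayed postemergence with the test material dispersed in 50/50 acetone/water containing 0.5% TWEEN®20 surfactant, using a nozzle at 40 psi. Plants were kept on greenhouse benches under standard care and visually rated on a 0-9 scale four to five weeks after treatment.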
# [9] = system: CYPERUS SEROTINUS, ROTTB.; test: Preemergence weed control under flooded paddy conditions, CYPSE (Flatsedge); conditions: for Herbicidal effect rating, CYPSE: preemergence, 3-4 weeks after treatment; for CYPSE: pre-weed
# In short: as §2
# [10] = system: GLYCINE MAX(L) MERR. CV. WILLIAMS; test: Preemergence herbicidal evaluation, GLXMAW (Soybean, Williams); conditions: for GLXMAW herbicidal rating: rated four to five weeks after treatment
# In short: as §1
# [11] = system: ZEA MAYS L.; test: Preemergence herbicidal evaluation, ZEAMX (Corn, Field); conditions: for ZEAMX herbicidal rating: rated four to five weeks after treatment
# In short: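 Corn (Zea mays) seeds were mixed with potting soil and planted on about one inch of soil in pint cups, then treated preemergence. Cups were kept on greenhouse benches, watered and maintained conventionally, and after four to five weeks were visually rated on a 0-9 scale versus an untreated control.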
# [12] = system: ORYZA SATIVA, L. TEBONNET; test: Postemergence herbicidal evaluation, ORYSAT (Rice, Tebonnet); set-up: key: 0-9 visual rating scale vs untreated control
# In short: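 Rice (Tebonnet) seedlings raised in jiffy flats for roughly two weeks were sprayed postemergence at 40 psi with compound dispersed in 50/50 acetone/water containing 0.5% TWEEN®20. The plants were then kept on greenhouse benches under standard care and visually scored on a 0-9 scale against a control four to five weeks after treatment.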
substance,measurement,setting,value
"Methyl 3-{2-[(2-chloro-α,α,α,-trifluoro-p-tolyl)oxy]phenyl}tetrahydro-5-methyl-2,4,6-trioxo-s-triazine-1(2H)-acetate [Compound 28]",GALAP,[1]; Rate 0.125 kg/ha,3.0
same,GALAP herbicidal rating,[1]; Rate 0.125 kg/ha,3.0
same,GALAP,[1]; Rate 0.250 kg/ha,4.0
same,GALAP herbicidal rating,[1]; Rate 0.250 kg/ha,4.0
same,GALAP,[1]; Rate 0.500 kg/ha,5.5
same,GALAP herbicidal rating,[1]; Rate 0.500 kg/ha,6.0
same,GALAP,[1]; Rate 1.000 kg/ha,5.0
same,GLXMAW,[2]; Rate 0.063 kg/ha,2.5
same,GLXMAW,[2]; Rate 0.125 kg/ha,3.5
same,GLXMAW rating,[2]; Rate 0.125 kg/ha,3.5
same,GLXMAW,[2]; Rate 0.250 kg/ha,4.5
same,GLXMAW rating,[2]; Rate 0.250 kg/ha,4.5
same,GLXMAW,[2]; Rate 0.500 kg/ha,5.0
same,GLXMAW rating,[2]; Rate 0.500 kg/ha,5.0
same,CASOB,[3]; Rate 0.125 kg/ha,0.0
same,CASOB herbicidal rating,[3]; Rate 0.125 kg/ha,0.0
same,CASOB,[3]; Rate 0.250 kg/ha,2.0
same,CASOB herbicidal rating,[3]; Rate 0.250 kg/ha,2.0
same,CASOB,[3]; Rate 0.500 kg/ha,1.5
same,CASOB herbicidal rating,[3]; Rate 0.500 kg/ha,3.0
same,CASOB,[3]; Rate 1.000 kg/ha,3.0
same,"Herbicidal effect rating, SAGPY",[4]; 0.063 kg/ha,0.0
same,"Herbicidal effect rating, SAGPY",[4]; 0.125 kg/ha,0.0
same,"Herbicidal effect rating, SAGPY",[4]; 0.250 kg/ha,0.0
same,"Herbicidal effect rating, SAGPY",[4]; 0.500 kg/ha,0.0
same,SAGPY,[4]; Rate 0.250 kg/ha,0.0
same,SAGPY,[4]; Rate 0.500 kg/ha,0.0
same,SAGPY,[4]; Rate 1.000 kg/ha,0.0
same,"Herbicidal effect rating, CYPIR",[5]; 0.063 kg/ha,0.0
same,"Herbicidal effect rating, CYPIR",[5]; 0.125 kg/ha,0.0
same,"Herbicidal effect rating, CYPIR",[5]; 0.250 kg/ha,0.0
same,"Herbicidal effect rating, CYPIR",[5]; 0.500 kg/ha,4.0
same,CYPIR,[5]; Rate 0.250 kg/ha,0.0
same,CYPIR,[5]; Rate 0.500 kg/ha,6.5
same,CYPIR,[5]; Rate 1.000 kg/ha,7.0
same,"Herbicidal effect rating, ECHORC",[6]; 0.063 kg/ha,0.0
same,"Herbicidal effect rating, ECHORC",[6]; 0.125 kg/ha,0.0
same,"Herbicidal effect rating, ECHORC",[6]; 0.250 kg/ha,2.0
same,"Herbicidal effect rating, ECHORC",[6]; 0.500 kg/ha,8.0
same,ECHORC,[6]; Rate 0.250 kg/ha,2.0
same,ECHORC,[6]; Rate 0.500 kg/ha,8.5
same,ECHORC,[6]; Rate 1.000 kg/ha,7.0
same,"Herbicidal effect rating, MOOVA",[7]; 0.063 kg/ha,0.0
same,"Herbicidal effect rating, MOOVA",[7]; 0.125 kg/ha,0.0
same,"Herbicidal effect rating, MOOVA",[7]; 0.250 kg/ha,2.0
same,"Herbicidal effect rating, MOOVA",[7]; 0.500 kg/ha,9.0
same,MOOVA,[7]; Rate 0.250 kg/ha,2.0
same,MOOVA,[7]; Rate 0.500 kg/ha,9.0
same,MOOVA,[7]; Rate 1.000 kg/ha,9.0
same,ZEAMX,[8]; Rate 0.063 kg/ha,1.5
same,ZEAMX,[8]; Rate 0.125 kg/ha,2.5
same,ZEAMX rating,[8]; Rate 0.125 kg/ha,2.5
same,ZEAMX,[8]; Rate 0.250 kg/ha,4.0
same,ZEAMX rating,[8]; Rate 0.250 kg/ha,4.0
same,ZEAMX,[8]; Rate 0.500 kg/ha,4.5
same,ZEAMX rating,[8]; Rate 0.500 kg/ha,4.5
same,"Herbicidal effect rating, CYPSE",[9]; 0.063 kg/ha,0.0
same,"Herbicidal effect rating, CYPSE",[9]; 0.125 kg/ha,0.0
same,"Herbicidal effect rating, CYPSE",[9]; 0.250 kg/ha,0.0
same,"Herbicidal effect rating, CYPSE",[9]; 0.500 kg/ha,0.0
same,CYPSE,[9]; Rate 0.250 kg/ha,0.0
same,CYPSE,[9]; Rate 0.500 kg/ha,0.0
same,CYPSE,[9]; Rate 1.000 kg/ha,0.0
same,GLXMAW,[10]; Rate 0.125 kg/ha,0.0
same,GLXMAW herbicidal rating,[10]; Rate 0.125 kg/ha,0.0
same,GLXMAW,[10]; Rate 0.250 kg/ha,1.0
same,GLXMAW herbicidal rating,[10]; Rate 0.250 kg/ha,1.0
same,GLXMAW,[10]; Rate 1.000 kg/ha,0.0
same,ZEAMX,[11]; Rate 0.125 kg/ha,0.0
same,ZEAMX herbicidal rating,[11]; Rate 0.125 kg/ha,0.0
same,ZEAMX,[11]; Rate 0.250 kg/ha,0.0
same,ZEAMX herbicidal rating,[11]; Rate 0.250 kg/ha,0.0
same,ZEAMX,[11]; Rate 0.500 kg/ha,1.0
same,ZEAMX herbicidal rating,[11]; Rate 0.500 kg/ha,1.0
same,ZEAMX,[11]; Rate 1.000 kg/ha,1.0
same,ORYSAT,[12]; Rate 0.063 kg/ha,1.5
same,ORYSAT,[12]; Rate 0.125 kg/ha,2.0
same,ORYSAT rating,[12]; Rate 0.125 kg/ha,2.0
same,ORYSAT,[12]; Rate 0.250 kg/ha,2.5
same,ORYSAT rating,[12]; Rate 0.250 kg/ha,2.5
same,ORYSAT,[12]; Rate 0.500 kg/ha,3.0
same,ORYSAT rating,[12]; Rate 0.500 kg/ha,3.0
